Measured values from ChEMBL document CHEMBL1138857, “Quinol-4-ones as steroid A-ring mimetics in nonsteroidal dissociated glucocorticoid agonists” (J Med Chem, 2006).

What was measured:
HeLa [1] = experiment: Activation of MMTV in HeLa cells measured by luciferase activity relative to Dexamethasone; format: functional, Homo sapiens
HFF [2] = experiment: Inhibition of IL1-stimulated IL6 production in HFF cells relative to Dexamethasone; format: functional, Homo sapiens
HeLa [3] = experiment: Activation of MMTV in HeLa cells measured by luciferase activity; format: functional, cell-based; settings: Homo sapiens
Progesterone receptor = biological target: T1, Progesterone receptor (Homo sapiens, UniProt P06401); experiment: Inhibition of tetramethylrhodamine labeled RU486 binding to PR by FP assay
T1 sequence (P06401 whole entry): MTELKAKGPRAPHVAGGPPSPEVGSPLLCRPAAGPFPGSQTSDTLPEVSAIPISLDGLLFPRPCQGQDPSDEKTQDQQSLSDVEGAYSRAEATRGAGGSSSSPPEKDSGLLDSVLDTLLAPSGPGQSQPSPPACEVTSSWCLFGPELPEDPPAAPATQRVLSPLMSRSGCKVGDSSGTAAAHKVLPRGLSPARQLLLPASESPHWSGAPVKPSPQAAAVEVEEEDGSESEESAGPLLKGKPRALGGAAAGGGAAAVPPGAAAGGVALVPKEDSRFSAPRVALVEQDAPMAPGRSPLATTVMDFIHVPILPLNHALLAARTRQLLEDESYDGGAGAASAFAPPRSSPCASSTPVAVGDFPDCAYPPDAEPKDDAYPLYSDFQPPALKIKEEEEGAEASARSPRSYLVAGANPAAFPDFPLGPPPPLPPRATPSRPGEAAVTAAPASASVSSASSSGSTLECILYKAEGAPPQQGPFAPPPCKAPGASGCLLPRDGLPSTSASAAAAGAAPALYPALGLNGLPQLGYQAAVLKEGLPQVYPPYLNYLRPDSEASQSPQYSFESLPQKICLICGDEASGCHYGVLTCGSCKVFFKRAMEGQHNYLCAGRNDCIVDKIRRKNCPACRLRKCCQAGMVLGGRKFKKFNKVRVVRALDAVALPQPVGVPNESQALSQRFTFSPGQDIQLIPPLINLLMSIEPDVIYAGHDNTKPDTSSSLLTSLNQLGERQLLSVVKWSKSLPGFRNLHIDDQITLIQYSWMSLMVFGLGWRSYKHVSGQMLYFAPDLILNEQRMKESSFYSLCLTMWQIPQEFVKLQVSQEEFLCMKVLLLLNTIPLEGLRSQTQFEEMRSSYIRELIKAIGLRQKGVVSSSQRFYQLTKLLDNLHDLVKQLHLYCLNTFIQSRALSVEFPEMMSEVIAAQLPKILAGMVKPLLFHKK

HFF [4] = experiment: Inhibition of IL1-stimulated IL6 production in HFF cells; format: functional, cell-based; settings: Homo sapiens
Glucocorticoid receptor = biological target: T2, Glucocorticoid receptor (Homo sapiens, UniProt P04150)
T2 sequence (P04150 whole entry): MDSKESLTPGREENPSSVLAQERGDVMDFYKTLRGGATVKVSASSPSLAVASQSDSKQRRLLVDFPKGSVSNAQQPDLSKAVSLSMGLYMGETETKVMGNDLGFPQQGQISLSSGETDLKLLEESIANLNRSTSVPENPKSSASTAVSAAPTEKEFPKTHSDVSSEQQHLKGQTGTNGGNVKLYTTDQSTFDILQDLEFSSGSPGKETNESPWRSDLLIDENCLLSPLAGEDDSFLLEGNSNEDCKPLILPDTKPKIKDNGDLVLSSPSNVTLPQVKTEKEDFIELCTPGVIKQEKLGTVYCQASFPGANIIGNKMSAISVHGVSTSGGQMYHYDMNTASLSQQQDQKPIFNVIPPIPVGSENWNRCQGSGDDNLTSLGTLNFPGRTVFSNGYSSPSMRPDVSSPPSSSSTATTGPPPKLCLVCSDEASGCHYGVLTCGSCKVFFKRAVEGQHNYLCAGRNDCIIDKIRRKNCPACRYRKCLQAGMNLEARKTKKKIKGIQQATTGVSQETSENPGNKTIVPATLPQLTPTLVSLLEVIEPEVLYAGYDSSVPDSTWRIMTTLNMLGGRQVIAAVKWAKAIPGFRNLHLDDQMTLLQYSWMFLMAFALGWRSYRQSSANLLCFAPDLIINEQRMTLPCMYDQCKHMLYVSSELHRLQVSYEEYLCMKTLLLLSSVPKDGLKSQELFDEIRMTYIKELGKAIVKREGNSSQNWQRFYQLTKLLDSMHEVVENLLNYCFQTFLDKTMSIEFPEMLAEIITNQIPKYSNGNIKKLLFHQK

Mus musculus [5] = experiment: Inhibition of LPS-stimulated TNFalpha production in BALB/c mouse at 10 mg/kg, po; format: functional
HFF [6] = experiment: Induction of aromatase activity in HFF cells assessed as production of beta estradiol by aromatase assay; format: functional, cell-based; settings: Homo sapiens
[7] = biological target: T3, Mineralocorticoid receptor (Homo sapiens, UniProt P08235); experiment: Inhibition of tetramethylrhodamine labeled dexamethasone binding to MR by FP assay
T3 sequence (P08235 whole entry): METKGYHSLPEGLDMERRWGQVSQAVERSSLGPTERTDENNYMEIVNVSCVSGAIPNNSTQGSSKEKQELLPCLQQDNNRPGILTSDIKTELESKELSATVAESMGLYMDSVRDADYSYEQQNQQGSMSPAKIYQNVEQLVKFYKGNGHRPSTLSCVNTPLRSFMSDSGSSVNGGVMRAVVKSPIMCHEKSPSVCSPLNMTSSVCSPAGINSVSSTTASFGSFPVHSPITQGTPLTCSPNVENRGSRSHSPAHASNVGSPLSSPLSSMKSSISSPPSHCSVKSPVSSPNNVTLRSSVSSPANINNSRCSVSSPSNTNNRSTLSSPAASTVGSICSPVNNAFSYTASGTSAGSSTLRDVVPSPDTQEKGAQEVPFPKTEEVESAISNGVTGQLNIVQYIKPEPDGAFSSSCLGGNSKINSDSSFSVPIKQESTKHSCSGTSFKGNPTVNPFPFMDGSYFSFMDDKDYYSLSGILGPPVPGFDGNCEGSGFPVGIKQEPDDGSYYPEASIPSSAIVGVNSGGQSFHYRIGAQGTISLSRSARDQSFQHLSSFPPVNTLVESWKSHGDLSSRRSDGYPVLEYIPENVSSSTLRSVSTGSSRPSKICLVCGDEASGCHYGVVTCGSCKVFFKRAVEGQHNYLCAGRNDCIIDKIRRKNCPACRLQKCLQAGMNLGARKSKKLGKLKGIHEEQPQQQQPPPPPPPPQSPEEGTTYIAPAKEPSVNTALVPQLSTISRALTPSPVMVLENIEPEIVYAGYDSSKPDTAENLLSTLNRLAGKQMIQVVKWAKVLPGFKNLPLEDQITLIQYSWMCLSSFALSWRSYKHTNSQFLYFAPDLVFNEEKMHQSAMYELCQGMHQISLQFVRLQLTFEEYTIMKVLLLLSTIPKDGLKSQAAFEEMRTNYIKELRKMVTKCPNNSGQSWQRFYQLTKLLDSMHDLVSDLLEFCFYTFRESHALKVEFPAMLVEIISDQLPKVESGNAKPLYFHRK

HFF [8] = experiment: Induction of aromatase activity in HFF cells assessed as production of beta estradiol by aromatase assay relative to Dexamethasone; format: functional, Homo sapiens
Homo sapiens = organism: Homo sapiens; experiment: Ratio of IC50 for GR to PR
Mus musculus [9] = experiment: Inhibition of LPS-stimulated TNFalpha production in BALB/c mouse at 3 mg/kg, po; settings: read-out: Inhibition

Structure (SMILES)	EC50 (HeLa [3]) [nM]	Efficacy (HeLa [1]) [%]	Efficacy (HFF [2]) [%]	IC50 (Progesterone receptor) [nM]	IC50 (HFF [4]) [nM]	IC50 (Glucocorticoid receptor) [nM]	inhibition in vivo at 10 mg/kg (Mus musculus [5]) [%]	EC50 (HFF [6]) [nM]	IC50 [7] [nM]	Efficacy (HFF [8]) [%]	Ratio IC50 (Homo sapiens)	inhibition in vivo at 3 mg/kg (Mus musculus [9]) [%]
COc1ccc(F)cc1C(C)(C)CC(O)(CN1C[C@@H](C)O[C@@H](C)C1)C(F)(F)F (some centres not stated)			72	> 2000	270	38			450		> 75	
COc1ccc(F)cc1C(C)(C)CC(O)(CN1CCC(=O)c2ccccc21)C(F)(F)F (configuration not stated)			72	90	110	4			130		< 50	
COc1ccc(F)cc1C(C)(C)CC(O)(CN1CCOc2ccccc21)C(F)(F)F (configuration not stated)			25	640	600	15			310		< 50	
C[C@]12C=CC(=O)C=C1CC[C@@H]1[C@@H]2[C@@H](O)C[C@@]2(C)[C@H]1CC[C@]2(O)C(=O)CO [PREDNISOLONE]	16	91	96		6.6			19		92		84
COc1ccc(F)cc1C(C)(C)CC(O)(CN1C[C@@H](C)C(=O)[C@@H](C)C1)C(F)(F)F (some centres not stated)			89	> 2000	75	10		240	430	93	> 75	

More lines, main results first:

EC50 (HeLa [3]) [nM]	Structure (SMILES)	Efficacy (HeLa [1]) [%]	Efficacy (HFF [2]) [%]	IC50 (Progesterone receptor) [nM]	IC50 (HFF [4]) [nM]	IC50 (Glucocorticoid receptor) [nM]	inhibition in vivo at 10 mg/kg (Mus musculus [5]) [%]	EC50 (HFF [6]) [nM]	IC50 [7] [nM]	Efficacy (HFF [8]) [%]	Ratio IC50 (Homo sapiens)	inhibition in vivo at 3 mg/kg (Mus musculus [9]) [%]
37	CC(C)(CC(O)(Cn1ccc(=O)c2ccccc21)C(F)(F)F)c1cc(F)ccc1O (configuration not stated)	20	92	960	6	5	55	14	580	74		
> 2000	COc1ccc(F)cc1C(C)(C)CC(O)(Cn1ccc(=O)c2ccccc21)C(F)(F)F (configuration not stated)	10	82	475	27	10		220	120	67	< 50	
> 2000	Cc1ccccc1C(C)(C)CC(O)(Cn1ccc(=O)c2ccccc21)C(F)(F)F (configuration not stated)	1	63	240	61	22	36	> 2000	150	29		
> 2000	Cc1ccc(F)cc1C(C)(C)CC(O)(Cn1ccc(=O)c2ccccc21)C(F)(F)F (configuration not stated)	2	66	240	34	10	50		120	22		
